Consider 27 compounds from patent US20130217664A1, “NOVEL COMPOUNDS USEFUL FOR THE TREATMENT OF DEGENERATIVE AND INFLAMMATORY DISEASES” (priority 2012, published 2013).

T1 sequence (P23458 866-1154): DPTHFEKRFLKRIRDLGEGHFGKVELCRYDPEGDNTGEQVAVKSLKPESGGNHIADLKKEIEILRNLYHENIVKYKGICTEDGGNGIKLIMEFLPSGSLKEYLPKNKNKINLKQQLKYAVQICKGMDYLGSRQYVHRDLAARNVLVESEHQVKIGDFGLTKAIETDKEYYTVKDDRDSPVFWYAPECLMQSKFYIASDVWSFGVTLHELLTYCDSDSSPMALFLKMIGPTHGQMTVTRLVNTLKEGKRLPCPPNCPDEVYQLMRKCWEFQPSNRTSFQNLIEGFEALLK

This assay concerns the target T1, human JAK1 (Homo sapiens, UniProt P23458).
T1 construct: catalytic domain, amino acids 866-1154; catalog number PV4774; purchased Invitrogen PV4774
The assay is described as follows: JAK1 inhibition assay (polyGT substrate / Ulight-JAK1 peptide). Type of assay: biochemical. To be noted: recombinant human JAK1 catalytic domain; polyGT or Ulight-JAK1 peptide assay. As for the experimental part:
1.1 JAK1 Inhibition Assay
1.1.1 JAK1 Assay polyGT Substrate
After 45 min at 30° C., reactions are stopped by adding of 25 μL/well of 150 mM phosphoric acid. […] Plates are washed 6 times with 300 μL per well of a 75 mM phosphoric acid solution and the bottom of the plates is sealed. 40 μL/well of Microscint-20 is added, the top of the plates is sealed and readout is performed using the Topcount (Perkin Elmer). Kinase activity is calculated by subtracting counts per min (cpm) obtained in the presence of a positive control inhibitor (10 μM staurosporine) from cpm obtained in the presence of vehicle. The ability of a test compound to inhibit this activity is determined as:
Percentage inhibition=((cpm determined for sample with test compound present−cpm determined for sample with positive control inhibitor)divided by(cpm determined in the presence of vehicle−cpm determined for sample with positive control inhibitor))*100.
Dose dilution series are prepared for the compounds enabling the testing of dose-response effects in the JAK1 assay and the calculation of the IC50 for each compound.
1.1.2 JAK1 Ulight-JAK1 Peptide Assay
After 60 min at room temperature, reactions were stopped by adding 20 μL/well of detection mixture (1× detection buffer (Perkin Elmer, catalog number CR97-100C), 0.5 nM Europium-anti-phosphotyrosine (PT66) (Perkin Elmer, catalog number AD0068), 10 mM EDTA). […] Kinase activity was calculated by subtracting relative fluorescence units (RFU) obtained in the presence of a positive control inhibitor (10 μM staurosporine) from RFU obtained in the presence of vehicle. The ability of a test compound to inhibit this activity was determined as:
Percentage inhibition=((RFU determined for sample with test compound present−RFU determined for sample with positive control inhibitor)divided by(RFU determined in the presence of vehicle−RFU determined for sample with positive control inhibitor))*100.
Dose dilution series were prepared for the compounds enabling the testing of dose-response effects in the JAK1 assay and the calculation of the IC50 for the compound. Each compound is routinely tested at concentration of 20 μM followed by a 1/5 serial dilution, 10 points in a final concentration of 1% DMSO. […] The data are expressed as the average IC50 from the assays±standard error of the mean.
The IC50 is the midpoint of a concentration-inhibition curve. Consider `CCOC(=O)c1ccc(N(CC)c2cc3c(cn2)ncn3C)cc1` [Compound 7, 4-[Ethyl-(1-methyl-1H-imidazo[4,5-c]pyridin-6-yl)-amino]-benzoic acid ethyl ester], for which the IC50 is more than 1000 nM. For the compound `CCc1cc(-c2c(C)nn(C)c2C)ccc1N(C)c1cc2c(cn1)ncn2C` [Compound 138, N-(2-ethyl-4-(1,3,5-trimethyl-1H-pyrazol-4-yl)phenyl)-N,1-dimethyl-1H-imidazo[4,5-c]pyridin-6-amine], the IC50 lay in the range of 101 to 500 nM. Regarding `CCc1cc(-c2cn(C)cn2)ccc1N(C)c1cc2c(cn1)ncn2C` [Compound 145, N-(2-ethyl-4-(1-methyl-1H-imidazol-4-yl)phenyl)-N,1-dimethyl-1H-imidazo[4,5-c]pyridin-6-amine], the IC50 lay within 0.01 to 100 nM. Under `CCc1cc(CNC2CCS(=O)(=O)CC2)ccc1N(C)c1cc2c(cn1)ncn2C` [Compound 146, {4-[(1,1-Dioxo-hexahydrothiopyran-4-ylamino)-methyl]-2-ethyl-phenyl}-methyl-(1-methyl-1H-imidazo[4,5-c]pyridin-6-yl)-amine] stands 0.01 to 100 nM; under `CCc1cc(C(=O)NC2CCCN(C)C2)ccc1N(C)c1cc2c(cn1)ncn2C` (stereo not drawn) [Compound 152, 3-ethyl-4-(methyl(1-methyl-1H-imidazo[4,5-c]pyridin-6-yl)amino)-N-(1-methylpiperidin-3-yl)benzamide], 0.01 to 100 nM. In the case of `CCc1cc(CNCC(C)(C)O)ccc1N(C)c1cc2c(cn1)ncn2C` [Compound 169, 1-(3-ethyl-4-(methyl(1-methyl-1H-imidazo[4,5-c]pyridin-6-yl)amino)benzylamino)-2-methylpropan-2-ol] it was 0.01 to 100 nM. In the case of `CCc1cc(C(=O)NC2CN(C(=O)OC(C)(C)C)C2)ccc1N(C)c1cc2c(cn1)ncn2C` [Compound 170, tert-butyl 3-(3-ethyl-4-(methyl(1-methyl-1H-imidazo[4,5-c]pyridin-6-yl)amino)benzamido)azetidine-1-carboxylate], the IC50 was in the range of 501 to 1000 nM. In the case of `CCc1cc(C(=O)NC2COC2)ccc1N(C)c1cc2c(cn1)ncn2C` [Compound 171, 3-ethyl-4-(methyl(1-methyl-1H-imidazo[4,5-c]pyridin-6-yl)amino)-N-(oxetan-3-yl)benzamide] it was 101 to 500 nM.

Consider `CCc1cc(Cn2ccnc2C)ccc1N(C)c1cc2c(cn1)ncn2C` [Compound 173, N-(2-Ethyl-4-((2-methyl-1H-imidazol-1-yl)methyl)phenyl)-N,1-dimethyl-1H-imidazo[4,5-c]pyridin-6-amine], for which the IC50 lay within 0.01 to 100 nM. Consider `CCc1cc(C(=O)NC2CNC2)ccc1N(C)c1cc2c(cn1)ncn2C` [Compound 174, N-(azetidin-3-yl)-3-ethyl-4-(methyl(1-methyl-1H-imidazo[4,5-c]pyridin-6-yl)amino)benzamide], for which the IC50 was in the range of 101 to 500 nM. As to `CCc1cc(C(=O)NC2CN(S(C)(=O)=O)C2)ccc1N(C)c1cc2c(cn1)ncn2C` [Compound 175, 3-Ethyl-4-(methyl(1-methyl-1H-imidazo[4,5-c]pyridin-6-yl)amino)-N-(1-(methylsulfonyl)azetidin-3-yl)benzamide], the IC50 fell in the range of 501 to 1000 nM. With `CCc1cc(C2CCN(C(=O)OC(C)(C)C)CC2)ccc1N(C)c1cc2c(cn1)ncn2C` [Compound 180, tert-butyl 4-(3-ethyl-4-(methyl(1-methyl-1H-imidazo[4,5-c]pyridin-6-yl)amino)phenyl)piperidine-1-carboxylate], the IC50 lay in the range of 101 to 500 nM.

In the case of `CCc1cc(-c2n[nH]c(C)n2)ccc1N(C)c1cc2c(cn1)ncn2C` [Compound 183, N-(2-ethyl-4-(5-methyl-1H-1,2,4-triazol-3-yl)phenyl)-N,1-dimethyl-1H-imidazo[4,5-c]pyridin-6-amine], the IC50 was in the range of 0.01 to 100 nM. As to `CCc1cc(-c2cnc(N3CCOCC3)nc2)ccc1N(C)c1cc2c(cn1)ncn2C` [Compound 184, N-(2-Ethyl-4-(2-morpholinopyrimidin-5-yl)phenyl)-N,1-dimethyl-1H-imidazo[4,5-d]pyridin-6-amine], the IC50 lay in the range of 101 to 500 nM. Regarding `CCc1cc(C(=O)O)ccc1N(C)c1cc2c(cn1)ncn2C` [Compound 185, 3-Ethyl-4-(methyl(1-methyl-1H-imidazo[4,5-c]pyridin-6-yl)amino)benzoic acid], the IC50 was more than 1000 nM. Under `CCc1cc(C2CCNCC2)ccc1N(C)c1cc2c(cn1)ncn2C` [Compound 187, N-(2-Ethyl-4-(piperidin-4-yl)phenyl)-N,1-dimethyl-1H-imidazo[4,5-c]pyridin-6-amine] stands 0.01 to 100 nM; under `CCc1cc(-c2n[nH]c(C3CC3)n2)ccc1N(C)c1cc2c(cn1)ncn2C` [Compound 188, N-(4-(5-cyclopropyl-1H-1,2,4-triazol-3-yl)-2-ethylphenyl)-N,1-dimethyl-1H-imidazo[4,5-c]pyridin-6-amine], 101 to 500 nM.

On to `CCNC(=O)NCc1ccc(N(C)c2cc3c(cn2)ncn3C)c(CC)c1` [Compound 192, 1-Ethyl-3-(3-ethyl-4-(methyl(1-methyl-1H-imidazo[4,5-c]pyridin-6-yl)amino)benzyl)urea], for which the IC50 lay within 0.01 to 100 nM. For the compound `CC(NC(=O)OC(C)(C)C)c1ccc(N(C)c2cc3c(cn2)ncn3C)c(F)c1` (stereo not drawn) [Compound 268, tert-Butyl (1-(3-fluoro-4-(methyl(1-methyl-1H-imidazo[4,5-c]pyridin-6-yl)amino)phenyl)ethyl)carbamate], the IC50 is more than 1000 nM. As to `CC(=O)N1CC(c2ccc(N(C)c3cc4c(cn3)ncn4C)c(F)c2)C1` [Compound 278, 1-(3-{3-Fluoro-4-[methyl-(1-methyl-M-imidazo[4,5-c]pyridin-6-yl)-amino]-phenyl}-azetidin-1-yl)-ethanone], the IC50 is 501 to 1000 nM.

With `CN(c1cc2c(cn1)ncn2C)c1ccc(C2CCN(C(=O)OC(C)(C)C)CC2)cc1F` [Compound 279, 4-{3-Fluoro-4-[methyl-(1-methyl-M-imidazo[4,5-c]pyridin-6-yl)-amino]-phenyl}-piperidine-1-carboxylic acid tert-butyl ester], the 50% inhibitory concentration (IC50) is more than 1000 nM. Turning to `CN(c1cc2c(cn1)ncn2C)c1ccc(C2=CCN(C(=O)OC(C)(C)C)CC2)cc1OC(F)F` [Compound 281, 4-{3-Difluoromethoxy-4-[methyl-(1-methyl-1H-imidazo[4,5-c]pyridin-6-yl)-amino]-phenyl}-3,6-dihydro-2H-pyridine-1-carboxylic acid tert-butyl ester], the IC50 is 101 to 500 nM. Regarding `Cn1cnc2cnc(N(CC3CC3)c3ccc(C#N)cc3F)cc21` [Compound 282, 4-[Cyclopropylmethyl-(1-methyl-1H-imidazo[4,5-c]pyridin-6-yl)-amino]-3-fluoro-benzonitrile], the IC50 was more than 1000 nM. As to `CCc1ccccc1N(CCC#N)c1cc2c(cn1)ncn2C` [Compound 285, 3-[(2-Ethyl-phenyl)-(1-methyl-1H-imidazo[4,5-c]pyridin-6-yl)-amino]-propionitrile], the IC50 fell in the range of 101 to 500 nM. `CN(c1cc2c(cn1)ncn2C)c1ccc(C2CCN(C(=O)OC(C)(C)C)CC2)cc1OC(F)F` [Compound 286, 4-{3-Difluoromethoxy-4-[methyl-(1-methyl-1H-imidazo[4,5-c]pyridin-6-yl)-amino]-phenyl}-piperidine-1-carboxylic acid tert-butyl ester]: the IC50 lay in the range of 101 to 500 nM. For `CCc1ccccc1N(C)c1cc2c(cn1)ncn2C1CC1` [Compound 296, 1-cyclopropyl-N-(2-ethylphenyl)-N-methyl-1H-imidazo[4,5-c]pyridin-6-amine], the IC50 was 501 to 1000 nM. Take `CCc1ccccc1N(C)c1cc2c(cn1)ncn2CC` [Compound 297, 1-ethyl-N-(2-ethylphenyl)-N-methyl-1H-imidazo[4,5-c]pyridin-6-amine]: the IC50 is 501 to 1000 nM.
